What was measured:
[1] = tested on: human 26S proteasomes; assay: TSTO cross-linking of affinity-purified 26S proteasomes, LC-MSn
Procedure: (§1) Cross-linked proteins were then digested in 8M urea buffer using LysC for 4 h at 37° C., followed by trypsin digestion at 37° C. overnight after diluting urea concentration to <1.5 M. The resulting peptide mixtures were extracted and desalted using C18 tips (Agilent) prior to MS analyses.
LC-MS^n analysis. LC-MS^n analysis of cross-linked peptides was performed using an UltiMate 3000 UPLC (Thermo Fisher Scientific) liquid chromatograph coupled on-line to an Orbitrap Fusion Lumos mass spectrometer (Thermo Fisher Scientific). Peptides were separated by reverse-phase on a 50 cm×75 μm I.D. Acclaim® PepMap RSLC column using gradients of 4% to 25% acetonitrile at a flow rate of 300 nL/min (solvent A: 100% H2O, 0.1% formic acid; solvent B: 100% acetonitrile, 0.1% formic acid) prior to MS^n analysis. For each MS^n acquisition, duty cycles consisted of one full Fourier transform scan mass spectrum (375-1500 m/z, resolution of 60,000 at m/z 400) followed by data-dependent MS^2 and MS^3 acquired at top speed in the Orbitrap and linear ion trap, respectively. Ions detected in MS^1 with 4+ or greater charge were selected and subjected to CID fragmentation (NCE 23%) in MS^2 and resulting ions were detected in the Orbitrap (resolution 30,000). Ions observed in MS^2 spectra with charge 2+ or greater were selected and fragmented in MS^3 using CID (NCE 35%) and detected in the linear ion trap in ‘Rapid’ mode. Ions selected for MS^3 were either based on abundance (top 4 or 5 most intense ions in MS^2) or targeted based on doublets with mass difference pairs (Δ=18.02 Da) corresponding to cross-linker remnant moiety water loss. For 26S proteasome cross-links, each acquisition was 200 min and ion selection for MS^3 was based on top intensity. For SEC-separated F24 fractions, the entire HpHt fraction was injected; for F26 fractions half of the HpHt fraction was injected for each LC-MS^n analysis. Each acquisition was 120 or 150 min, and both top intensity and mass difference-targeted methods were used for selecting ions for MS^3 analysis. […]

[2] = target: BSA (Bos taurus, UniProt P02769); assay: TSTO cross-linking of BSA, LC-MSn
Chain of BSA (P02769 25-607): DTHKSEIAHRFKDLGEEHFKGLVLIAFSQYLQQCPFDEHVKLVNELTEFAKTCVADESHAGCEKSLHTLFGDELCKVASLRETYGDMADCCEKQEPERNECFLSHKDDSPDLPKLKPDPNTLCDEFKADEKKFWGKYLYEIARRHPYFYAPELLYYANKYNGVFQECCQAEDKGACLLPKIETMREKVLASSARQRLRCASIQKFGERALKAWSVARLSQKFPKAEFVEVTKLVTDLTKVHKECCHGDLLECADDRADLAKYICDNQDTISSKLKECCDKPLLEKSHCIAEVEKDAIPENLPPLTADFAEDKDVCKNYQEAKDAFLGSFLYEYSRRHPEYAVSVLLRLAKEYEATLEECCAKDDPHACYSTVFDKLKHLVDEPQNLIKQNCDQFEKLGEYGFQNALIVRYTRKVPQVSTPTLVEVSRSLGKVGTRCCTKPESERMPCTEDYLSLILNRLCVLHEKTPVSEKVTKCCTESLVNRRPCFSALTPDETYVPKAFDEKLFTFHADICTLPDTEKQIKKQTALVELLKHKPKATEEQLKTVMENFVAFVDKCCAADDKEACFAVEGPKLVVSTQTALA
Procedure: as §1, with “The reaction was carried out for 1 h at RT, followed by quenching with ammonium bicarbonate. […] Cross-linked” for “Cross-linked”
LC-MS^n analysis. LC-MS^n analysis of cross-linked peptides was performed using an UltiMate 3000 UPLC (Thermo Fisher Scientific) liquid chromatograph coupled on-line to an Orbitrap Fusion Lumos mass spectrometer (Thermo Fisher Scientific). Peptides were separated by reverse-phase on a 50 cm×75 μm I.D. Acclaim® PepMap RSLC column using gradients of 4% to 25% acetonitrile at a flow rate of 300 nL/min (solvent A: 100% H2O, 0.1% formic acid; solvent B: 100% acetonitrile, 0.1% formic acid) prior to MS^n analysis. For each MS^n acquisition, duty cycles consisted of one full Fourier transform scan mass spectrum (375-1500 m/z, resolution of 60,000 at m/z 400) followed by data-dependent MS^2 and MS^3 acquired at top speed in the Orbitrap and linear ion trap, respectively. Ions detected in MS^1 with 4+ or greater charge were selected and subjected to CID fragmentation (NCE 23%) in MS^2 and resulting ions were detected in the Orbitrap (resolution 30,000). Ions observed in MS^2 spectra with charge 2+ or greater were selected and fragmented in MS^3 using CID (NCE 35%) and detected in the linear ion trap in ‘Rapid’ mode. Ions selected for MS^3 were either based on abundance (top 4 or 5 most intense ions in MS^2) or targeted based on doublets with mass difference pairs (Δ=18.02 Da) corresponding to cross-linker remnant moiety water loss. For 26S proteasome cross-links, each acquisition was 200 min and ion selection for MS^3 was based on top intensity. For SEC-separated F24 fractions, the entire HpHt fraction was injected; for F26 fractions half of the HpHt fraction was injected for each LC-MS^n analysis. Each acquisition was 120 or 150 min, and both top intensity and mass difference-targeted methods were used for selecting ions for MS^3 analysis.
Spectrometric data were extracted from .raw files using PAVA. Extracted MS^3 spectra were subjected to protein database searching via Batch-Tag within a developmental version of Protein Prospector (v. 6.3.5, University of California, San Francisco) against a randomly concatenated SwissProt database consisting of 20,418 human proteins and their corresponding decoys. Mass tolerances for parent ions and fragment ions were set as ±15 ppm and 0.6 Da, respectively. Trypsin was set as the enzyme with three maximum missed cleavages allowed. Cysteine carbamidomethylation was selected as a constant modification, while protein N-terminal acetylation, methionine oxidation, and N-terminal conversion of glutamine to pyroglutamic acid were selected as variable modifications.

## O=C(CCCC1OC(CCCC(=O)ON2C(=O)CCC2=O)OC(CCCC(=O)ON2C(=O)CCC2=O)O1)ON1C(=O)CCC1=O (centres unmarked) [TSTO, Tris(2,5-dioxopyrrolidin-1-yl) 4,4′,4″-(1,3,5-trioxane-2,4,6-triyl)tributanoate]
[1]; 0.75 mM TSTO on-bead
  share of unique CSMs that were tri-links: 41.3%
[1]; 0.75 mM TSTO on-bead, PBS pH 7.5, 1 h
  total unique CSMs: 808
[1]; mapped to PDB: 7QY7
  satisfaction rates (≤35 Å) of mapped tri-links and bi-links: ~90%
[2]; 1 mM TSTO, pH 7.4 PBS, 1 h RT
  redundant cross-linked spectra matches (CSMs): 823
  unique CSMs: 167
[2]; 45/167
  tri-links share of total unique CSMs: ~27%
[2]; mapped to PDB:4F5S
  overall mapped distance median (Cα-Cα): 21.1 Å
  satisfaction rate of cross-links ≤35 Å: 90%

— patent US20250389728A1, “NOVEL CLASS OF TRIOXANE-BASED MS-CLEAVABLE CROSS-LINKERS TO ADVANCE PROTEIN-PROTEIN INTERACTION STUDIES USING CROSS-LINKING MASS SPECTROMETRY” (The Regents of the University of California, priority 2024, published 2025)
